Reference: publication PMC10222646 (Microorganisms, 2023)

Legend:
[1] = target: T1, P. falciparum GS-I (PfGS-I) (Plasmodium falciparum, UniProt W7JM41); experiment: Glutamine synthetase assay, purified MBP-fused PfGS-I (Glutamine/Glutamate-GLO); type: biochemical, Plasmodium falciparum NF54
T1 sequence (W7JM41 1-544): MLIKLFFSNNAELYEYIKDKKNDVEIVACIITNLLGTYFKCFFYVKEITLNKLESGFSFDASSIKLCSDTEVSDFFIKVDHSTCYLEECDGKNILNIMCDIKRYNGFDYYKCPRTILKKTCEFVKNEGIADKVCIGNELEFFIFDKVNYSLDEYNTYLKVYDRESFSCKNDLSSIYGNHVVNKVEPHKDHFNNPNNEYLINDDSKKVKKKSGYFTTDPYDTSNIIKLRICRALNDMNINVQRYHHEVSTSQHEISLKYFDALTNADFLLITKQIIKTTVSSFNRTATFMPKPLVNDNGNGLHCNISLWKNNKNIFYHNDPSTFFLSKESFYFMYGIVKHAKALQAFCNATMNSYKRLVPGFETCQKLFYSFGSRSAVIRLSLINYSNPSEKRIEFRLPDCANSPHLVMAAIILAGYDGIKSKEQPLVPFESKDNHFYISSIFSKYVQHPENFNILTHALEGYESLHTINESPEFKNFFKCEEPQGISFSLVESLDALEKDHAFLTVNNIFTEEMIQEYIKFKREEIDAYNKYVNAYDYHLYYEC

human GS-II (hGS-II) = target: T2, human GS-II (hGS-II) (Homo sapiens, UniProt P15104); experiment: Glutamine synthetase assay, human GS-II (Glutamine/Glutamate-GLO); type: biochemical; settings: 1 µM AST, 30 min, Figure 2b
T2 construct: purchased BioVision Inc., Milpitas, CA, USA
T2 sequence (P15104 whole entry): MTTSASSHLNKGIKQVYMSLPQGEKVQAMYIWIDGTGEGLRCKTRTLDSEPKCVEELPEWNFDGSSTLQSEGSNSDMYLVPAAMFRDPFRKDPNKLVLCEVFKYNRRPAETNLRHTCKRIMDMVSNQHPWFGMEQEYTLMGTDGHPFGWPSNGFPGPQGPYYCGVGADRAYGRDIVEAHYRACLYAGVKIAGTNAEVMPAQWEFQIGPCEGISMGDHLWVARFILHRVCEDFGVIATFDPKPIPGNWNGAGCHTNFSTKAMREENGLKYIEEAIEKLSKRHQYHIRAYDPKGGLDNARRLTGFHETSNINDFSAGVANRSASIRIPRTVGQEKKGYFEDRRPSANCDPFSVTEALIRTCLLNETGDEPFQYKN
Description: The activity and inhibition profiles of purified MBP-fused PfGS-I or human GS-II (hGS-II) (BioVision Inc., Milpitas, CA, USA) in the presence or absence of AST were estimated from glutamine production using Glutamine/Glutamate-GLO^TM Assay Kit (Promega, Madison, WI, USA). The assay mixture (50 mM imidazole-HCl buffer (pH 7.0), 7.6 mM ATP, 50 mM magnesium chloride, 50 mM ammonium chloride) with or without the indicated concentration of GS enzyme was preincubated in the presence or absence of the indicated concentrations of AST for 15 min at room temperature. The reaction was initiated through the addition of L-glutamate at 0.1 mM, the final concentration. The reaction mixtures were incubated at 37 °C with shaking at 300 rpm for the indicated time. The reactions were terminated by chilling the reaction mixture in ice water and filtered with 30 kDa Amicon Ultra centrifugal filters at 4 °C. Glutamate concentrations in the filtered samples were determined using a Glutamine/Glutamate-GLO^TM Assay as instructed in the kit’s manual, from which glutamine concentrations were estimated by subtracting the glutamate concentrations from the initial concentrations (0.1 mM). The EC50 (half maximal effective concentration) of AST for PfGS-I was calculated using Sigma Plot (Systat Software, Inc., Sun Jose, CA, USA).

[2] = test system: asexual-stage P. falciparum; experiment: Antimalarial activity on asexual-stage P. falciparum in human blood (parasitemia, Giemsa smears); type: cell-based, Plasmodium falciparum NF54; settings: day 4, 0.5% starting parasitemia, 2% hematocrit; read-out: EC50 for inhibition of the asexual-stage P. falciparum (parasitemia rates)
Description: 3–5-day cultured P. falciparum-infected red blood cells (iRBCs) were mixed with fresh human red blood cells (RBCs) (AB+ type) in complete RPMI 1640 to prepare cultures with 0.5% parasitemia and 2% hematocrit. AST was dissolved in dimethyl sulfoxide (DMSO). Then, 5 μL DMSO with AST at concentrations of 0, 0.5, 1, 2, 4, and 8 mM were added to the 0.5 mL iRBCs in a 48-well plate, yielding final concentrations of 5, 10, 20, 40, and 80 µM, respectively. The plate was incubated in a candle jar at 37 °C. Approximately 48 h later, the medium was replaced with fresh medium containing the same concentration of AST. Parasitemia was recorded via microscopic evaluation of Giemsa-stained blood smears on day 4 post-incubation.

[3] = test system: P. falciparum transmission to Anopheles gambiae mosquitoes; experiment: Transmission-blocking standard membrane feeding assay (SMFA), oocysts in mosquito midguts; type: in vivo, Plasmodium falciparum NF54; settings: for Mean oocyst number per midgut: control 2.6; for Infect(%) percentage of infected mosquitoes: control 60
[4] = test system: macrophage-like cells differentiated from THP-1
[5] = test system: human cell lines (HepG2, HEK293, Caco-2, THP-1, macrophage)
[6] = test system: Anopheles gambiae mosquitoes; experiment: Mosquito mortality observed in SMFA (insecticidal activity); settings: AST in blood meal

C[As](=O)(O)CC[C@H](N)C(=O)O [AST, 2-amino-4-(hydroxymethylarsinoyl)butanoate]
EC50 [1]: 0.4 µM | activity of PfGS-I compared with the control without AST treatment ([1]; 1 µM AST, PfGS-I 1 µM, 30 min, Figure 2b): less than 40% | inhibition of PfGS-I activity ([1]; AST at 100 µM, Figure 2c): completely inhibited | effect on activity of hGS-II (human GS-II (hGS-II)): did not significantly reduce | EC50 [2]: 13.9 µM | inhibition of malaria transmission ([3]; 3 µM AST, SMFA): completely inhibited | EC50 ([3]; SMFA, day 7 post-infection, read-out: EC50 in blocking the transmission of the sexual-stage P. falciparum to mosquitos (oocysts per mosquito)): 0.34 µM | Mean oocyst number per midgut ([3]; [AST] 0.1 μM): 2.8 | Infect(%) percentage of infected mosquitoes ([3]; [AST] 0.1 μM): 59.6% | Mean oocyst number per midgut ([3]; [AST] 0.3 μM): 1.4 | Infect(%) percentage of infected mosquitoes ([3]; [AST] 0.3 μM): 36.8% | Mean oocyst number per midgut ([3]; [AST] 1 μM): 0.25 | Infect(%) percentage of infected mosquitoes ([3]; [AST] 1 μM): 20% | Mean oocyst number per midgut ([3]; [AST] 3 μM): 0 | Infect(%) percentage of infected mosquitoes ([3]; [AST] 3 μM): 0% | Mean oocyst number per midgut ([3]; [AST] 30 μM): 0 | Infect(%) percentage of infected mosquitoes ([3]; [AST] 30 μM): 0% | CC50 (HEK293): > 250 µM | cytotoxicity relative to As(III) (times less cytotoxic) (HEK293): > 10 times | CC50 (THP-1): > 250 µM | CC50 [4]: > 250 µM | CC50 (HepG2): > 250 µM | CC50 (Caco-2): 150 to 200 µM | permeability (total cellular arsenic levels) [5]: permeable | insecticidal activity (dead mosquitoes) [6]: no dead mosquitoes were observed
